These results are taken from ChEMBL document CHEMBL4651402, “Screening of ~5500 FDA-approved drugs and clinical candidates for anti-SARS-CoV-2 activity” (2021).

For the assay, the system named is SARS-CoV-2. The assay is described as follows: microbe, parasite or virus in culture. To be noted: Severe acute respiratory syndrome coronavirus 2, Vero C1008, 48 h.

Take `C[C@H]1Oc2cc(cnc2N)-c2c(nn(C)c2C#N)CN(C)C(=O)c2ccc(F)cc21` [LORLATINIB]: the IC50 was more than 20 µM. Moreover, the IC50 (read-out: pIC50 (converted)) is more than 20 µM.
As to `CN1C(=O)C(O)N=C(c2ccccc2Cl)c2cc(Cl)ccc21` (stereo not drawn) [LORMETAZEPAM], the IC50 is more than 20 µM. Besides, the IC50 (read-out: pIC50 (converted)) was more than 20 µM.
Molecule `CN(C(=O)CNC(=O)CN)c1ccc(Cl)cc1C(=O)c1ccccc1Cl` [LORZAFONE ANHYDROUS] came in with an IC50 of more than 20 µM. The IC50 (read-out: pIC50 (converted)) is more than 20 µM.
`CCCCc1nc(Cl)c(CO)n1Cc1ccc(-c2ccccc2-c2nnn[nH]2)cc1` [LOSARTAN] displayed an IC50 of more than 20 µM. In addition, the IC50 (read-out: pIC50 (converted)) was more than 20 µM.
`Cc1c(F)cc(C(=O)NC2CC2)cc1-c1ccc(C(=O)NCC(C)(C)C)cn1` [LOSMAPIMOD] gave an IC50 of more than 20 µM. Also, the IC50 (read-out: pIC50 (converted)) was more than 20 µM.
`O=C(c1ccc(Nc2ccnc3cc(C(F)(F)F)ccc23)cc1)N1CCN(S(=O)(=O)c2ccc(F)cc2)CC1` [LOSULAZINE] displayed an IC50 of more than 20 µM. Moreover, the IC50 (read-out: pIC50 (converted)) is more than 20 µM.
For the molecule `CC[C@H](C)C(=O)O[C@H]1C[C@@H](C)C=C2C=C[C@H](C)[C@H](CC[C@@H]3C[C@@H](O)CC(=O)O3)[C@H]21` [LOVASTATIN], the IC50 is more than 20 µM. Further, under “read-out: pIC50 (converted)”, the IC50 is more than 20 µM.
Molecule `CN1CCN(C2=Nc3ccccc3Oc3ccc(Cl)cc32)CC1` [LOXAPINE] yielded an IC50 of more than 20 µM. For the same molecule, the IC50 (read-out: pIC50 (converted)) was more than 20 µM.
For the molecule `CCCCCN(CCCOC)C(=O)C(CCC(=O)O)NC(=O)c1ccc(Cl)c(Cl)c1` (stereo not drawn) [LOXIGLUMIDE], the IC50 is more than 20 µM. The IC50 (read-out: pIC50 (converted)) was more than 20 µM.
Regarding `CNC(=O)c1cccc2cc(Oc3ccnc4cc(OCC5(N)CC5)c(OC)cc34)ccc12` [LUCITANIB], the IC50 is more than 20 µM. The IC50 (read-out: pIC50 (converted)) was more than 20 µM.
On to `CC(C)C(=O)OC[C@@]1(CCl)O[C@@H](n2ccc(N)nc2=O)[C@H](F)[C@@H]1OC(=O)C(C)C` [LUMICITABINE], for which the IC50 was more than 20 µM. Also, where the note is “read-out: pIC50 (converted)”, the IC50 was more than 20 µM.
Take `CCNC(=O)c1noc(-c2cc(C(C)C)c(O)cc2O)c1-c1ccc(CN2CCOCC2)cc1` [LUMINESPIB]: the IC50 is more than 20 µM. Besides, under “read-out: pIC50 (converted)”, the IC50 was more than 20 µM.
In the case of `Cc1ccc(Nc2c(F)cccc2Cl)c(CC(=O)O)c1` [LUMIRACOXIB], the IC50 is more than 20 µM. For the same molecule, the IC50 (read-out: pIC50 (converted)) is more than 20 µM.
Regarding `OC[C@@H]1CCCN2CCCC[C@H]12` [LUPININE], the IC50 is more than 20 µM. Also, the IC50 (read-out: pIC50 (converted)) was more than 20 µM.
On to `Cc1nc2ccccn2c(=O)c1CCN1CCc2oc3ccccc3c2C1` [LUSAPERIDONE], for which the IC50 was more than 20 µM. Also, the IC50 (read-out: pIC50 (converted)) was more than 20 µM.
As to `O=c1cc(-c2ccc(O)c(O)c2)oc2cc(O)cc(O)c12` [LUTEOLIN], the IC50 was more than 20 µM. In addition, the IC50 (read-out: pIC50 (converted)) is more than 20 µM.
Consider `N[C@@]1(C(=O)O)CS(=O)(=O)[C@H]2[C@H](C(=O)O)[C@H]21` [LY404039], for which the IC50 is more than 20 µM. Also, the IC50 (read-out: pIC50 (converted)) was more than 20 µM.
`Cc1nc(N2CCN(C)CC2)c2nc(-c3ccccc3Cl)n(C3CCOCC3)c2n1` [LY2828360] had an IC50 of more than 20 µM. Further, the IC50 (read-out: pIC50 (converted)) is more than 20 µM.
`O[C@H]1[C@H]2c3cc4c(cc3CN3CCC(=C[C@@H]1O)[C@H]23)OCO4` [LYCORINE] registered an IC50 of more than 20 µM. Further, where the note is “read-out: pIC50 (converted)”, the IC50 is more than 20 µM.
In turn, `NCc1ccc(S(N)(=O)=O)cc1` [MAFENIDE] showed an IC50 of more than 20 µM. Further, for the setting “read-out: pIC50 (converted)”, the IC50 is more than 20 µM.
Regarding `CCOC(=O)CC(SP(=S)(OC)OC)C(=O)OCC` (stereo not drawn) [MALATHION], the IC50 is more than 20 µM. Also, the IC50 (read-out: pIC50 (converted)) is more than 20 µM.
In the case of `O=C(O)/C=C\C(=O)O` [MALEIC ACID], the IC50 was more than 20 µM. The IC50 (read-out: pIC50 (converted)) was more than 20 µM.
The molecule `O=C(O)CC(O)C(=O)O` (stereo not drawn) [MALIC ACID] had an IC50 of more than 20 µM. Under “read-out: pIC50 (converted)”, the IC50 is more than 20 µM.
For the molecule `O=C(O)CC(=O)O` [MALONIC ACID], the IC50 is more than 20 µM. The IC50 (read-out: pIC50 (converted)) is more than 20 µM.
In turn, `Cc1occc(=O)c1O` [MALTOL] had an IC50 of more than 20 µM. For the same molecule, the IC50 (read-out: pIC50 (converted)) is more than 20 µM.
As to `OC[C@H]1O[C@H](O[C@H]2[C@H](O)[C@@H](O)[C@H](O)O[C@@H]2CO)[C@H](O)[C@@H](O)[C@@H]1O` [MALTOSE], the IC50 was more than 20 µM. The IC50 (read-out: pIC50 (converted)) is more than 20 µM.
Molecule `COC(=O)C(O)c1ccccc1` (stereo not drawn) [MANDELIC ACID, METHYL ESTER] had an IC50 of more than 20 µM. The IC50 (read-out: pIC50 (converted)) is more than 20 µM.
`O=c1c2cc(O)c(O)cc2oc2cc(O)c([C@@H]3O[C@H](CO)[C@@H](O)[C@H](O)[C@H]3O)c(O)c12` [MANGIFERIN] showed an IC50 of more than 20 µM. For the same molecule, the IC50 (read-out: pIC50 (converted)) is more than 20 µM.
`COC(=O)C1=C(C)NC(C)=C(C(=O)OCCN2CCN(C(c3ccccc3)c3ccccc3)CC2)C1c1cccc([N+](=O)[O-])c1` (stereo not drawn) [MANIDIPINE 6300]: the IC50 was more than 20 µM. For the setting “read-out: pIC50 (converted)”, the IC50 was more than 20 µM.
`Cc1nnc(C(C)C)n1[C@H]1C[C@H]2CC[C@@H](C1)N2CC[C@H](NC(=O)C1CCC(F)(F)CC1)c1ccccc1` [MARAVIROC] showed an IC50 of more than 20 µM. In addition, under “read-out: pIC50 (converted)”, the IC50 is more than 20 µM.
Take `CN1CCN(c2c(F)cc3c(=O)c(C(=O)O)cn4c3c2OCN4C)CC1` [MARBOFLOXACIN]: the IC50 is more than 20 µM. Also, the IC50 (read-out: pIC50 (converted)) is more than 20 µM.
For `Cn1cc(-c2ccncc2)c(-c2ccc(OCc3ccc4ccccc4n3)cc2)n1` [MARDEPODECT], the IC50 is more than 20 µM. In addition, the IC50 (read-out: pIC50 (converted)) is more than 20 µM.
The molecule `CC(C)Nc1nc2cc(Cl)c(Cl)cc2n1[C@H]1O[C@@H](CO)[C@H](O)[C@@H]1O` [MARIBAVIR] displayed an IC50 of more than 50.1 µM. Also, where the note is “read-out: pIC50 (converted)”, the IC50 is more than 50.1 µM.
In turn, `C=CC(=O)N[C@@H]1CN(c2nc(Nc3cn(C)nc3OC)c3ncn(C)c3n2)C[C@H]1F` [MAVELERTINIB] registered an IC50 of more than 20 µM. Where the note is “read-out: pIC50 (converted)”, the IC50 was more than 20 µM.
With `CC(C)Oc1ccccc1N1CCN(Cc2cccc(C(=O)N3CCCCC3)c2)CC1` [MAZAPERTINE], the IC50 was more than 20 µM. Also, the IC50 (read-out: pIC50 (converted)) was more than 20 µM.
As to `OC1(c2ccc(Cl)cc2)c2ccccc2C2=NCCN21` (stereo not drawn) [MAZINDOL], the IC50 was more than 20 µM. Besides, the IC50 (read-out: pIC50 (converted)) is more than 20 µM.
Regarding `CC(C)Cc1sc(N)nc1-c1ccc(P(=O)(O)O)o1` [MB-05032], the IC50 is more than 20 µM. Also, the IC50 (read-out: pIC50 (converted)) was more than 20 µM.
`COC(=O)Nc1nc2cc(C(=O)c3ccccc3)ccc2[nH]1` [MEBENDAZOLE] displayed an IC50 of more than 20 µM. The IC50 (read-out: pIC50 (converted)) is more than 20 µM.
The molecule `CCN(CCCCOC(=O)c1ccc(OC)c(OC)c1)C(C)Cc1ccc(OC)cc1` (stereo not drawn) [MEBEVERINE] came in with an IC50 of more than 20 µM. Moreover, the IC50 (read-out: pIC50 (converted)) is more than 20 µM.
For `CN1CCc2c(c3ccccc3n2Cc2ccccc2)C1` [MEBHYDROLIN], the IC50 is more than 20 µM. The IC50 (read-out: pIC50 (converted)) is more than 20 µM.
As for `CN1C(=O)N(C)C2C1N(C)C(=O)N2C` (stereo not drawn) [MEBICAR], the IC50 was more than 20 µM. For the same molecule, the IC50 (read-out: pIC50 (converted)) was more than 20 µM.
`COc1ccc2[nH]cc(CCN(C)C)c2c1` [MEBUFOTENIN] came in with an IC50 of more than 20 µM. The IC50 (read-out: pIC50 (converted)) is more than 20 µM.
On to `CNC1(C)C2CCC(C2)C1(C)C` (stereo not drawn) [MECAMYLAMINE], for which the IC50 is more than 20 µM. For the same molecule, for the setting “read-out: pIC50 (converted)”, the IC50 is more than 20 µM.
As to `Cc1cccc(CN2CCN(C(c3ccccc3)c3ccc(Cl)cc3)CC2)c1` (stereo not drawn) [MECLIZINE], the IC50 was more than 20 µM. Where the note is “read-out: pIC50 (converted)”, the IC50 was more than 20 µM.
